# Test results: ChEMBL document CHEMBL1201862, “PubChem BioAssay data set” (2004)
#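 48-hour exposure; five concentrations; linearly interpolated endpoints. Abbreviation: GI50, concentration required for 50% inhibition of growth.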 Activity calls are given as the source filed them. No stated cut-off is given here; in the data, active = GI50 up to about 1.1 µM and inactive = higher.
# Tests used:
# Test in all cases: inhibition of tumour cell growth, NCI panel, 48 h
# [1] = system: 786-0
# [2] = system: A549
# [3] = system: CAKI-1
# [4] = system: HL-60
# [5] = system: HT-29
# [6] = system: KM12
# [7] = system: Malme-3M
# [8] = system: NCI-H226
# [9] = system: PC-3
# [10] = system: SF-539
# [11] = system: SK-MEL-28
# [12] = system: SK-MEL-5
# [13] = system: SN12C
# [14] = system: SNB-19
# [15] = system: SR
# [16] = system: U-251
# [17] = system: UACC-257
# [18] = system: SK-OV-3
# [19] = system: CCRF-CEM
# [20] = system: HOP-92
Structure (SMILES),GI50 [1],GI50 [2],GI50 [3],GI50 [4],GI50 [5],GI50 [6],GI50 [7],GI50 [8],GI50 [9],GI50 [10],GI50 [11],GI50 [12],GI50 [13],GI50 [14],GI50 [15],GI50 [16],GI50 [17],GI50 [18],GI50 [19],GI50 [20]
Cc1ccc(-c2n[nH]c(=O)n2N2C(=O)c3ccccc3C2=O)cc1,> 100 µM (inactive),> 100 µM (inactive),> 100 µM (inactive),> 100 µM (inactive),> 100 µM (inactive),> 100 µM (inactive),> 100 µM (inactive),> 100 µM (inactive),> 100 µM (inactive),> 100 µM (inactive),> 100 µM (inactive),> 100 µM (inactive),> 100 µM (inactive),> 100 µM (inactive),> 100 µM (inactive),> 100 µM (inactive),> 100 µM (inactive),,,
COC(=O)C1CC2CC1C1C2SC(F)(F)C1(F)F (stereo not given),> 100 µM (inactive),> 100 µM (inactive),> 100 µM (inactive),,,> 100 µM (inactive),> 100 µM (inactive),> 100 µM (inactive),> 100 µM (inactive),> 100 µM (inactive),> 100 µM (inactive),> 100 µM (inactive),> 100 µM (inactive),> 100 µM (inactive),> 100 µM (inactive),> 100 µM (inactive),> 100 µM (inactive),> 100 µM (inactive),,
CCCCCCCCC/C=C1\CC(CO)(COC(=O)c2ccccc2)OC1=O (stereo not given),17.8 µM (inactive),20 µM (inactive),19.4 µM (inactive),,19.1 µM (inactive),21.4 µM (inactive),14.5 µM (inactive),23.2 µM (inactive),17.2 µM (inactive),,16.7 µM (inactive),12.5 µM (inactive),19.2 µM (inactive),20.9 µM (inactive),42.4 µM (inactive),21.1 µM (inactive),26.5 µM (inactive),18.3 µM (inactive),16.9 µM (inactive),9.82 µM (inactive)
O=C(/C=C/c1ccccc1O)/C=C/c1ccccc1O,1.69 µM (inactive),2.21 µM (inactive),1.52 µM (inactive),2.9 µM (inactive),1.92 µM (inactive),1.06 µM (active),2.11 µM (inactive),,1.74 µM (inactive),1.55 µM (inactive),1.81 µM (inactive),1.37 µM (inactive),1.72 µM (inactive),1.82 µM (inactive),0.526 µM (active),0.482 µM (active),4.43 µM (inactive),1.86 µM (inactive),0.305 µM (active),1.39 µM (inactive)
O=C1c2cc3c(cc2CC12Cc1ccc4c(c1C2=O)CCC4)CCC3 (stereo not given),65.6 µM (inactive),> 100 µM (inactive),> 100 µM (inactive),> 100 µM (inactive),> 100 µM (inactive),,41.7 µM (inactive),,> 100 µM (inactive),> 100 µM (inactive),> 100 µM (inactive),> 100 µM (inactive),,94.6 µM (inactive),> 100 µM (inactive),33.6 µM (inactive),> 100 µM (inactive),43.8 µM (inactive),> 100 µM (inactive),> 100 µM (inactive)
COC1OC(C(C)O)C2OC(C)(C)OC12 (stereo not given),> 100 µM (inactive),> 100 µM (inactive),> 100 µM (inactive),> 100 µM (inactive),> 100 µM (inactive),> 100 µM (inactive),,> 100 µM (inactive),> 100 µM (inactive),> 100 µM (inactive),> 100 µM (inactive),> 100 µM (inactive),> 100 µM (inactive),> 100 µM (inactive),> 100 µM (inactive),> 100 µM (inactive),> 100 µM (inactive),> 100 µM (inactive),> 100 µM (inactive),
c1ccc2c(c1)[nH]c1c2cc[n+]2cc3c(cc12)CCCC3,2.28 µM (inactive),6.93 µM (inactive),17.2 µM (inactive),,3.28 µM (inactive),1.7 µM (inactive),,2.03 µM (inactive),2.83 µM (inactive),1.64 µM (inactive),1.47 µM (inactive),1.54 µM (inactive),2.61 µM (inactive),3 µM (inactive),1.75 µM (inactive),2.51 µM (inactive),4.09 µM (inactive),3.87 µM (inactive),,3.25 µM (inactive)
CS/C1=C(\c2ccc(C)cc2)N(c2ccccc2)C(=O)C(=O)N(c2ccccc2)/C(c2ccc(C)cc2)=C(/SC)SS1,> 100 µM (inactive),,> 100 µM (inactive),> 100 µM (inactive),> 100 µM (inactive),,> 100 µM (inactive),,> 100 µM (inactive),> 100 µM (inactive),> 100 µM (inactive),,> 100 µM (inactive),> 100 µM (inactive),> 100 µM (inactive),> 100 µM (inactive),> 100 µM (inactive),,> 100 µM (inactive),> 100 µM (inactive)
NC(CCCCCP(=O)(c1ccccc1)C1C=CC=CC1)C(=O)O (stereo not given),,> 100 µM (inactive),> 100 µM (inactive),> 100 µM (inactive),> 100 µM (inactive),> 100 µM (inactive),,,> 100 µM (inactive),> 100 µM (inactive),> 100 µM (inactive),> 100 µM (inactive),> 100 µM (inactive),> 100 µM (inactive),> 100 µM (inactive),> 100 µM (inactive),> 100 µM (inactive),> 100 µM (inactive),> 100 µM (inactive),> 100 µM (inactive)
CSc1c(C#N)c(=O)n(N)c2[nH]nc(C)c12,> 100 µM (inactive),> 100 µM (inactive),45.2 µM (inactive),> 100 µM (inactive),> 100 µM (inactive),> 100 µM (inactive),> 100 µM (inactive),> 100 µM (inactive),> 100 µM (inactive),> 100 µM (inactive),> 100 µM (inactive),> 100 µM (inactive),> 100 µM (inactive),> 100 µM (inactive),> 100 µM (inactive),> 100 µM (inactive),> 100 µM (inactive),> 100 µM (inactive),> 100 µM (inactive),
COc1ccc(-c2c(C(C)=O)c(C)n(C3OC(CO)C(O)C(O)C3O)c(=S)c2C#N)cc1 (stereo not given),,> 100 µM (inactive),> 100 µM (inactive),41 µM (inactive),> 100 µM (inactive),90.6 µM (inactive),70.5 µM (inactive),,47 µM (inactive),36.1 µM (inactive),44.6 µM (inactive),48.8 µM (inactive),50.6 µM (inactive),19.5 µM (inactive),48.8 µM (inactive),47 µM (inactive),> 100 µM (inactive),> 100 µM (inactive),38.3 µM (inactive),
